{
  "source": "patent US12364706B2",
  "about": "“Modified aminoglycoside compounds and uses thereof in disabling bacterial ribosome” (Technion Research & Development Foundation Limited, priority 2018, dated 2025)",
  "key": {"[1]": {"test_system": "Gram-positive pathogenic MRSA strains", "experiment": "Antibacterial activity (MIC, double-microdilution) against MRSA strains", "assay_type": "cell-based", "conditions": "relative to NeoB", "method": "(§1) Comparative antibacterial activities were determined by measuring the MIC values by using the double-microdilution method according to the National Committee for Clinical Laboratory Standards (NCCLS).\n(§2) All the experiments were performed in triplicate, and analogous results were obtained in three different experiments.\nThe resistant strains included MRSA, a Gram-positive bacterium, the treatment of which represents a great challenge in the clinic; MRSA 252, which is known for its high resistance to aminoglycosides [M. T. G. Holden, E. J. Feil, J. A. Lindsay, S. J. Peacock, N. P. J. Day, M. C. Enright, T. J. Foster, C. E. Moore, L. Hurst, R. Atkin, et al., Proc. Natl. Acad. Sci. USA 2004, 101, 9786-9791]; and MRSA CI 15877, which is resistant to natural aminoglycosides [G. Kaneti, H. Sarig, I. Marjieh, Z. Fadia, A. Mor, FASEB J. 2013, 27, 4834-4843]."}, "[2]": {"test_system": "WT and aminoglycoside-resistant strains, including Gram-negative and Gram-positive bacteria", "experiment": "Antibacterial activity (MIC) against WT and aminoglycoside-resistant strains", "assay_type": "cell-based", "method": "as §1, §2\nThe minimal inhibitory concentration (MIC) values of the newly designed exemplary Compounds 1-10 were determined against wild-type (WT) Gram-negative and Gram-positive bacteria.\nThe bacterial strains that were included in these tests were as follows:\nTwo wild-type (WT) E. coli strains (R477-100 and 25922) as representatives of Gram-negative bacteria with unknown resistance to aminoglycosides [V. Pokrovskaya, V. Belakhov, M. Hainrichson, S. Yaron, T. Baasov, J. Med. Chem. 2009, 52, 2243-2254] and two WT Staphylococcus epidermidis and Bacillus subtilis strains as representatives of Gram-positive bacteria (the clinically used aminoglycosides have significant antibacterial activity against these strains) [J. Kondo, M. Hainrichson, I. Nudelman, D. Shallom-Shezifi, C. M. C. M. Barbieri, D. S. D. S. Pilch, E. Westhof, T. Baasov, ChemBioChem 2007, 8, 1700-1709]. […]"}, "E. coli ribosomes": {"test_system": "E. coli ribosomes", "experiment": "rRNA cleavage experiments with full-size E. coli ribosomes (gel electrophoresis)", "assay_type": "biochemical"}, "[3]": {"test_system": "E. coli S30 extract for circular DNA with the pBESTluc plasmid", "experiment": "Prokaryotic in vitro translation inhibition, coupled transcription/translation assay", "assay_type": "biochemical", "conditions": "for IC50: prokaryotic system, 37° C., 60 minutes, read-out: IC50 values, protein translation inhibition (half-maximum inhibition levels); for inhibitory potency of protein translation compared with NeoB: relative to NeoB", "method": "Prokaryotic in vitro translation inhibition by the different standard and synthetic aminoglycosides was quantified in coupled transcription/translation assays by use of E. coli S30 extract for circular DNA with the pBESTluc plasmid (Promega), according to the manufacturer's protocol.\nTranslation reactions ([…]) containing variable concentrations of the tested aminoglycoside were incubated at 37° C. for 60 minutes, cooled on ice for 5 minutes, and diluted with a dilution reagent [Tris-phosphate buffer (25 mm, pH 7.8), dithiothreitol (DTT, 2 mm), 1,2-diaminocyclohexanetetraacetate (2 mm), glycerol (10%), triton X100 (1%), and bovine serum albumin (BSA, 1 mg/mL] into 96-well plates.\nThe luminescence was measured immediately after the addition of Luciferase Assay Reagent (Promega) ([…]), and light emission was recorded with a Victor3 Plate Reader (PerkinElmer).\nThe concentration of half-maximal inhibition (IC^50) was obtained from fitting concentration-response curves to the data of at least three independent experiments by using Grafit 5 software."}, "[4]": {"test_system": "Geobacillus T1 harboring the resistance to kanamycin", "experiment": "Antibacterial activity against kanamycin-resistant Geobacillus T1", "assay_type": "cell-based", "method": "as §1, §2"}, "[5]": {"test_system": "adenylyl(3′-5′)-adenosine (ApA)", "conditions": "relative to 1,3-propanediamine; cited from earlier work"}},
  "data": [
    {"compound": "4′-O-(2-aminoethylamino)ethyl-neomycin [Compound 2]", "values": [
      {"measurement": "MIC values, times lower than that of NeoB", "setting": "[1]", "result": 64, "unit": "times"}
    ]},
    {"compound": "4′-O-(2-aminoethylamino)ethyl-paromamine [Compound 1]", "values": [
      {"measurement": "antibacterial activity", "setting": "[2]", "result": "substantially lower than that of the other compounds tested"}
    ]},
    {"compound": "CNCCNCCO[C@H]1[C@H](O)[C@@H](N)[C@@H](O[C@H]2[C@H](O[C@@H]3O[C@H](CO)[C@@H](O[C@H]4O[C@@H](CN)[C@@H](O)[C@H](O)[C@H]4N)[C@H]3O)[C@@H](O)[C@H](N)C[C@@H]2N)O[C@@H]1CN", "note": "[Compound 3, 4′-O-(2-(methylamino)ethylamino)ethyl-neomycin]", "values": [
      {"measurement": "cleavage of rRNA in full ribosomes", "setting": "E. coli ribosomes; pH 7", "result": "did not show any signs of the cleaved product"}
    ]},
    {"compound": "NCCNCC(=O)N[C@H]1[C@H](O)[C@@H](N)[C@@H](O[C@H]2[C@H](O[C@@H]3O[C@H](CO)[C@@H](O[C@H]4O[C@@H](CN)[C@@H](O)[C@H](O)[C@H]4N)[C@H]3O)[C@@H](O)[C@H](N)C[C@@H]2N)O[C@@H]1CN", "note": "[Compound 6, 4′-(2-(aminoethylamino)acetamido)-4′-deoxy-neomycin]", "values": [
      {"measurement": "IC50", "setting": "[3]", "result": 6, "unit": "nM"},
      {"measurement": "inhibitory potency of protein translation compared with NeoB", "setting": "[3]", "result": "two-fold higher than that of NeoB"}
    ]},
    {"compound": "NCCNCCNCC(=O)NC1C(CN)OC(OC2C(N)CC(N)C(O)C2OC2OC(CO)C(OC3OC(CN)C(O)C(O)C3N)C2O)C(N)C1O", "note": "(stereo not drawn) [Compound 8, 4′-[2-(2-(2-aminoethylamino)ethylamino)acetamido]-4′-deoxy-neomycin]", "values": [
      {"measurement": "MIC values, times lower than that of NeoB", "setting": "[1]", "result": 64, "unit": "times"}
    ]},
    {"compound": "NCCNCC(=O)NC[C@H]1O[C@H](O[C@H]2[C@H](O[C@@H]3O[C@H](CO)[C@@H](O[C@H]4O[C@@H](CN)[C@@H](O)[C@H](O)[C@H]4N)[C@H]3O)[C@@H](O)[C@H](N)C[C@@H]2N)[C@H](N)[C@@H](O)[C@@H]1N", "note": "[Compound 9, 4′-amino-6′-(2-(aminoethylamino)acetamido)-4′-deoxy-neomycin]", "values": [
      {"measurement": "IC50", "setting": "[3]", "result": 5, "unit": "nM"},
      {"measurement": "inhibitory potency of protein translation compared with NeoB", "setting": "[3]", "result": "two-fold higher than that of NeoB"}
    ]},
    {"compound": "NCCNCCNCC(=O)NC[C@H]1O[C@H](O[C@H]2[C@H](O[C@@H]3O[C@H](CO)[C@@H](O[C@H]4O[C@@H](CN)[C@@H](O)[C@H](O)[C@H]4N)[C@H]3O)[C@@H](O)[C@H](N)C[C@@H]2N)[C@H](N)[C@@H](O)[C@@H]1N", "note": "[Compound 10, 4′-amino-6′-[2-(2-(2-aminoethylamino)ethylamino)acetamido]-4′-deoxy-neomycin]", "values": [
      {"measurement": "IC50", "setting": "[3]", "result": 6, "unit": "nM"},
      {"measurement": "inhibitory potency of protein translation compared with NeoB", "setting": "[3]", "result": "two-fold higher than that of NeoB"}
    ]},
    {"compound": "NC[C@@H]1O[C@H](O[C@H]2[C@@H](O)[C@H](O[C@@H]3[C@@H](O)[C@H](N)C[C@H](N)[C@H]3O[C@H]3O[C@H](CN)[C@@H](O)[C@H](O)[C@H]3N)O[C@@H]2CO)[C@H](N)[C@@H](O)[C@@H]1O", "note": "[NeoB, Neomycin B]", "values": [
      {"measurement": "antibacterial activity", "setting": "[4]", "result": "almost lost its activity"},
      {"measurement": "cleavage of rRNA in full ribosomes", "setting": "E. coli ribosomes; concentrations up to 400 mM, 24 hours, 37° C., pH 7.0", "result": "did not show any signs of the cleaved product"},
      {"measurement": "hydrolysis of ApA, faster than 1,3-propanediamine", "setting": "[5]", "result": 3, "unit": "fold"},
      {"measurement": "IC50", "setting": "[3]", "result": 10, "unit": "nM"}
    ]},
    {"compound": "NCCN", "note": "[ethylenediamine]", "values": [
      {"measurement": "cleavage of rRNA in full ribosomes", "setting": "E. coli ribosomes; pH 7", "result": "did not cleave the full ribosome"}
    ]}
  ]
}
